These are literature values, as cited in patent US20050113573A1, “Nitroso compounds to treat ischemia” (priority 2003, published 2005).

Data set [1] relates to platelet adhesion. Conditions: pigs.
Data set [2] deals with neointimal proliferation. Conditions: rat.
Data set [3] relates to ischemically injured livers. Conditions: severe ischemia/reperfusion.
Data set [4] relates to rabbit iliac arteries. Conditions: rabbit iliac arteries after balloon angioplasty.
For data set [5], the system named is cerebral infarcts. Conditions: versus vehicle treated animals.
The conditions of data set [6]: 700 stable coronary patients, treated before the angioplasty.
Data set [7] has as its system smooth muscle cell proliferation. Conditions: pigs.
The subject of data set [8] is femoral arteries. The following applies: hypercholesterolemic mice, prolonged treatment.
Data set [9] relates to intimal proliferation and platelet deposition. The following applies: rabbits, local administration, after vascular arterial balloon injury.

For the compound `N=c1c[n+](N2CCOCC2)[n-]o1` [3-morpholino-sydnonimine], the “effect on platelet adhesion” value in [1] was “antiadhesive effects”.

As for `CC(C(=O)OCCCCO[N+](=O)[O-])c1ccc(-c2ccccc2)c(F)c1` (stereo not shown) [HCT-1026], in data set [2], the neointimal proliferation entry is listed as “reduction in the neointimal proliferation” and the nitrite/nitrate plasma levels entry is “increase in nitrite/nitrate plasma levels”.

As to `N=C(N)NCCC[C@H](N)C(=O)O` [L-arginine], in [3], the “liver function, neutrophil infiltration and animal survival after liver ischemia/reperfusion injury” value was “beneficial for the liver after severe ischemia/reperfusion”. Moreover, the neointimal area result in data set [4] is reported as “significant reduction of the neointimal area”. Also, the cerebral infarcts entry in [5] was “smaller cerebral infarcts than those in vehicle treated animals”.

`CCOC(=O)[N-]c1cn(N2CCOCC2)n[o+]1` [molsidomine]: in data set [4], the neointimal area result is listed as “significant reduction of the neointimal area”. Also, in [6], the clinical outcome is listed as “no effect on the clinical outcome” and the long-term angiographic result is listed as “modest improvement in the long-term angiographic result”. Moreover, in data set [7], the “smooth muscle cell proliferation following balloon angioplasty” value is on record as “inhibits smooth muscle cell proliferation following balloon angioplasty”.

As for `CC(=O)Oc1ccccc1C(=O)Oc1cccc(CO[N+](=O)[O-])c1` [nitric oxide releasing aspirin], the “vascular inflammation and apoptosis during vascular remodeling” value in data set [8] was “reduced the vascular inflammation and promoted apoptosis”.

For the compound “S-nitroso-bovine serum albumin: protein adduct of nitric oxide, locally delivered”, the “intimal proliferation and platelet deposition” value in data set [9] is “inhibited intimal proliferation and platelet deposition”.

As to “poly thiolated form of bovine serum albumin: poly thiolated form of bovine serum albumin modified to include several S-nitrosothiol groups”, the “intimal proliferation and platelet deposition” value in data set [9] was “inhibited intimal proliferation and platelet deposition”.
